# Measurements as given in paper PMC5874699, “Antimicrobial and Antibiofilm Activity of UP-5, an Ultrashort Antimicrobial Peptide Designed Using Only Arginine and Biphenylalanine” (Pharmaceuticals, 2018).
# Square brackets hold non-standard residues; d marks the D form. Peptide text beside a SMILES is read from it. Bip = N[C@@H](Cc1ccc(-c2ccccc2)cc1)C(=O)O
# Experiments:
# [1] = tested on: Enterococcus faecalis (ATCC BAA-2316); type: cell-based; conditions: ATCC BAA-2316, 24 h
# Source text: (§1) All bacterial susceptibility, biofilm, and synergistic assays of peptides, antibiotics, and peptides-antibiotics combinations used bacterial strains obtained from the American Type Tissue Culture Collection (ATCC, Manassas, VA, USA) that states the mechanism of resistance for each strain according to ATCC number. Gram-positive bacteria were represented by five strains, the wild type strain Staphylococcus aureus (ATCC 29213) and methicillin-resistant S. aureus (MRSA) (ATCC 33591) in addition to clinically isolated strains S. aureus (ATCC BAA-41& 43300) and Enterococcus faecalis (ATCC BAA-2316). The Gram-negative bacteria strains were represented by wild type strains of Escherichia coli (ATCC 25922 & 35218) and Pseudomonas aeruginosa (ATCC 27853) as well as the clinically isolated multidrug-resistant strain P. aeruginosa (ATCC BAA-2114). The bacteria were cultured onto Muller Hinton Agar (Scharlab, S.L, Barcelona, Spain). Mueller Hinton Broth (Oxoid Ltd., Basingstoke, UK) was used to prepare all bacterial suspensions and to dissolve the peptides and the antibiotics. The assay was performed in sterile 96-well polypropylene microtiter plates.
# (§2) All bacterial susceptibility assays were conducted according to the microbroth dilution method outlined by the Clinical and Laboratory Standards Institute (CLSI) guidelines.
# (§3) Briefly, pre-sterilized MHB was used as a growth medium for organisms obtained from stock media with glycerol. Bacterial cells were grown overnight in MHB and diluted to 10^6 CFU/mL in the same medium prior to use. For peptide, serial concentrations in the range of 0.5–100 μM were prepared. Then, 50 μL of each peptide concentration and 50 µL of diluted bacterial suspension were added to each well of a 96-well microtiter plate. Peptide solutions were prepared by dissolving the peptide in sterile MHB. Then, the plates were incubated overnight in a humidified atmosphere, and at 37 °C. Bacterial growth was determined by measuring the optical density (OD) at λ = 600 nm using an ELISA plate reader (Epoch, BioTek, Winooski, VT, USA) and the minimum inhibitory concentration (MIC) was determined.
# [2] = tested on: Escherichia coli (ATCC 25922); type: cell-based; conditions: ATCC 25922, 24 h
# Source text: as §1, §2, §3
# [3] = tested on: Escherichia coli (ATCC 35218); type: cell-based; conditions: ATCC 35218, 24 h
# Source text: as §1, §2, §3
# [4] = tested on: Pseudomonas aeruginosa (ATCC 27853); type: cell-based; conditions: ATCC 27853, 24 h
# Source text: as §1, §2, §3
# S. aureus (ATCC 29213) = assay: Broth microdilution checkerboard, UP-5 with antibiotics; type: cell-based, Staphylococcus aureus; conditions: S. aureus ATCC 29213, checkerboard, triplicate
# Source text: as §1
# (§4) According to the broth microdilution checkerboard technique, the MIC and MBC values of peptide-antibiotics combinations against wild type and multidrug resistant bacterial strains were determined. Serial concentrations of peptide and each antibiotic were prepared in the range of 0.005–100 μM. In each well of a 96-well microtiter plate, 25 μL of each peptide concentration were added to 25 μL of each antibiotic concentration which is followed by adding 50 μL of diluted bacterial suspension (10^6 CFU/mL) to each well. The prepared concentrations of peptide and each antibiotic were arranged into rows and columns, respectively, in a 96-well microtiter plate according the checkerboard technique. Then as described previously (see Section 2.4.1), the procedure was followed. All MIC and MBC determinations of all assays were made in triplicate.
# (§5) The fractional inhibitory concentration (FIC) is defined as the inhibitory concentration of the antimicrobial combination divided by that of the single antimicrobial component. To calculate FIC index for peptide-antibiotic combinations, the following equation was used:(1) FIC index=MIC of drug X in combination/MIC of drug X alone+MIC of drug Y in combination/MIC of drug Y alone
# (§6) The FIC indices were interpreted as follows: ≤0.5: synergistic activity, 0.5–1: additive activity, 1–4 indifferent, >4: antagonism. Interpretation and assessment of the FIC indices were performed according to the broth microdilution checkerboard technique.
# S. aureus (ATCC 33591) = assay: as above; type: cell-based, Staphylococcus aureus; conditions: S. aureus ATCC 33591, checkerboard, triplicate
# Source text: as §1, §4, §5, §6
# S. aureus (ATCC 43300) = assay: as above; type: cell-based, Staphylococcus aureus; conditions: S. aureus ATCC 43300, checkerboard, triplicate
# Source text: as §1, §4, §5, §6
# S. aureus (ATCC BAA-41) = assay: as above; type: cell-based, Staphylococcus aureus; conditions: S. aureus ATCC BAA-41, checkerboard, triplicate
# Source text: as §1, §4, §5, §6
# [5] = tested on: P. aeruginosa (ATCC BAA-2114); assay: as above; type: cell-based, Pseudomonas aeruginosa; conditions: P. auroginosa ATCC BAA-2114, checkerboard, triplicate
# Source text: as §1, §4, §5, §6
# [6] = UP-5 in combination with Ampicillin
# [7] = UP-5 in combination with Chloramphenicol
# [8] = UP-5 in combination with Erythromycin
# [9] = UP-5 in combination with Levofloxacin
# [10] = UP-5 in combination with Rifampicin
smiles,measurement,setting,value
N=C(N)NCCC[C@H](NC(=O)[C@H](Cc1ccc(-c2ccccc2)cc1)NC(=O)[C@H](CCCNC(=N)N)NC(=O)[C@H](Cc1ccc(-c2ccccc2)cc1)NC(=O)[C@@H](N)CCCNC(=N)N)C(=O)O [UP-5] (H-R[Bip]R[Bip]R-OH),MBC Value,[1],70 µM
same,MIC Value,[1],70 µM
same,MBC Value,[2],55 µM
same,MIC Value,[2],55 µM
same,MBC Value,[3],60 µM
same,MIC Value,[3],60 µM
same,MBC Value,[4],65 µM
same,MIC Value,[4],65 µM
same,UP-5 MIC in Combination,S. aureus (ATCC 29213); [6],0.25 µM
same,UP-5 MIC in Combination,S. aureus (ATCC 29213); [7],2.5 µM
same,UP-5 MIC in Combination,S. aureus (ATCC 29213); [8],10 µM
same,UP-5 MIC in Combination,S. aureus (ATCC 29213); [9],0.125 µM
same,UP-5 MIC in Combination,S. aureus (ATCC 29213); [10],10 µM
same,UP-5 MIC in Combination,S. aureus (ATCC 33591); [6],1.25 µM
same,UP-5 MIC in Combination,S. aureus (ATCC 33591); [7],5 µM
same,UP-5 MIC in Combination,S. aureus (ATCC 33591); [8],0.125 µM
same,UP-5 MIC in Combination,S. aureus (ATCC 33591); [9],0.125 µM
same,UP-5 MIC in Combination,S. aureus (ATCC 33591); [10],0.125 µM
same,UP-5 MIC in Combination,S. aureus (ATCC 43300); [6],7.5 µM
same,UP-5 MIC in Combination,S. aureus (ATCC 43300); [7],7.5 µM
same,UP-5 MIC in Combination,S. aureus (ATCC 43300); [8],7.5 µM
same,UP-5 MIC in Combination,S. aureus (ATCC 43300); [9],0.025 µM
same,UP-5 MIC in Combination,S. aureus (ATCC 43300); [10],5 µM
same,UP-5 MIC in Combination,S. aureus (ATCC BAA-41); [6],7.5 µM
same,UP-5 MIC in Combination,S. aureus (ATCC BAA-41); [7],7.5 µM
same,UP-5 MIC in Combination,S. aureus (ATCC BAA-41); [8],15 µM
same,UP-5 MIC in Combination,S. aureus (ATCC BAA-41); [9],15 µM
same,UP-5 MIC in Combination,S. aureus (ATCC BAA-41); [10],15 µM
same,UP-5 MIC in Combination,[5]; [6],20 µM
same,UP-5 MIC in Combination,[5]; [7],10 µM
same,UP-5 MIC in Combination,[5]; [8],27.5 µM
same,UP-5 MIC in Combination,[5]; [9],20 µM
same,UP-5 MIC in Combination,[5]; [10],25 µM
